Each block holds one molecule with its values, some of them ahead of it.
Legend:
beagle dogs = test: Urinary glucose excretion in beagle dogs; assay type: in vivo; conditions: 0.03 mg/kg oral, glucose 2 g/kg 1 h post dose; for Urinary Glucose Excretion in Dogs, 0-8 h (mean ± SD): 0-8 h (Table 4); for Urinary Glucose Excretion in Dogs, 0-24 h (mean ± SD): 0-24 h (Table 4); for Urinary Glucose Excretion in Dogs, 8-24 h (mean ± SD): 8-24 h (Table 4)
Protocol: Each test compound was dissolved in 10% PEG400 and administered orally to overnight-fasted beagle dogs by gavage at the dose level of 0.03 mg/kg. Control dogs were given 10% PEG400 only. One hour post dosing, glucose solution (2 g/kg, 5 mL/kg) was administered by oral gavage. Urine was collected within metabolic cages from 0 to 8 hours, and 8 to 24 hours post-dosing for urine volume and glucose measurement. Food was removed 16 hours before dosing and then provided 3 hours after dosing. Water was supplied ad libitum. The concentration of urinary glucose was determined at 8 hours and 24 hours post-dose using a biochemistry analyzer.

CYP1A2 = biological target: T1, CYP1A2 (Homo sapiens, UniProt P05177); test: P450-Glo CYP screening kit, CYP1A2 inhibition; assay type: in vitro ADME; conditions: luminescence, read-out: IC50 1A2
T1 construct: purchased Promega
T1 sequence (P05177 1-516): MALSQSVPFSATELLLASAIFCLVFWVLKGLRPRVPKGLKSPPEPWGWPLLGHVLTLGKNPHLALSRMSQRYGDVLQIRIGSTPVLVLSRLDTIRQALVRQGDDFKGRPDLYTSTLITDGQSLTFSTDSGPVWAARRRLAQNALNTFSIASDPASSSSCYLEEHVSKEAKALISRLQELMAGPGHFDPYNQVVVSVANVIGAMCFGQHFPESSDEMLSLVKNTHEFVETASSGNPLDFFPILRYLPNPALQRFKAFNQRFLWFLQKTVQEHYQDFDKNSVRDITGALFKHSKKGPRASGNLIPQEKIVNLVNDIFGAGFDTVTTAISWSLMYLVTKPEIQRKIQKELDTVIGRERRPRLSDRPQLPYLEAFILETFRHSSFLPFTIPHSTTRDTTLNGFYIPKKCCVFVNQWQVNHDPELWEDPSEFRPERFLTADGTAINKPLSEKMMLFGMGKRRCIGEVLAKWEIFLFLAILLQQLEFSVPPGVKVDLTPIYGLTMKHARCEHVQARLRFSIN
From the text: (§1) P450-Glo™ CYP Screening Kits for CYP1A2, CYP3A4 and CYP2C19 were purchased from Promega. […] Luminescence was quantified using a Victor 3 spectrophotometer (PerkinElmer).

CYP2C19 = biological target: T2, CYP2C19 (Homo sapiens, UniProt P33261); test: P450-Glo CYP screening kit, CYP2C19 inhibition; assay type: in vitro ADME; conditions: luminescence, read-out: IC50 2C19
T2 construct: purchased Promega
From the text: as §1

CYP3A4 = biological target: T3, CYP3A4 (Homo sapiens, UniProt P08684); test: P450-Glo CYP screening kit, CYP3A4 inhibition; assay type: in vitro ADME; conditions: luminescence, read-out: IC50 3A4
T3 construct: purchased Promega
From the text: as §1

[1] = Metabolism in SD rats: distribution of metabolites in urine; assay type: in vivo; conditions: male SD rats, 50 mg/kg oral, five consecutive days, HPLC
Protocol: Each test compound was dissolved in 30% PEG400 and administered orally to male SD rats by gavages at the dose level of 50 mg/kg (when using co-crystals, the weight calculation was based on free drug) for five consecutive days. Control rats were given 30% PEG400 only. All rats were housed in metabolic cages individually. Food and water were supplied ad libitum. Clinical observations (with attention to diarrhea symptoms) were performed twice daily. Food and water consumption were determined daily. Urine was collected pre-determined intervals: pre-dose, 0-4 hours, 4-8 hours, and 8-24 hours post-dose. Metabolites were analyzed and identified by LC/MS. The structures of the metabolites were confirmed by re-synthesis or isolation from the urine by preparative HPLC and NMR analysis. On day 6, all animals were sacrificed and gross necropsy was performed. The urine from two rats for each test compound was collected and pooled. The samples were diluted (1 mL urine in 4 mL of methanol) and analyzed by LC-MS: Waters 2695 Separations Module equipped with a Waters 2996 Photodiode Array Detector and a Waters Micromass ZQ Detector; Waters XTerra C18 3.5 μm, 20 mm×2.1 mm column, 1.0 mL/min, detection at 190-400 nm; 1.7 min gradient 10-50% A, followed by 1.8 min gradient 50-95% A, hold 1 min at 95% A; solvent A: 100% acetonitrile+0.045% formic acid; solvent B: Milli-Q water+0.1% formic acid. The urine samples were analyzed from 0-4 hours, 4-8 hours, 8-24 hours and 0-24 hours after administration. The ratio of metabolites was highly consistent within each time for each rat. The metabolites were identified by mass then re-synthesized to confirm their identity and the relative distribution was assayed using HPLC. […] See also FIGS. 1, 2A-2C, 3A-3D, and 4A-4C.

[2] = Pharmacokinetic parameters in SD rats; assay type: in vivo, Sprague-Dawley rats; conditions: single oral 3 mg/kg in 30% PEG400, plasma; for CL/F / AUC(0-t): Sprague-Dawley, rat; for AUC(0-t): read-out: AUC0-t (mean ± SD)
Protocol: The pharmacokinetic study of each test compound was conducted in 4 Sprague-Dawley rats following a single oral administration of 3 mg/kg of the compound. The dose was prepared by dissolving test article in appropriate volume of 30% PEG400. The plasma samples were collected from the orbital plexus at 0.083, 0.25, 0.50, 1.0, 2.0, 4.0, 6.0, 8.0, 12 and 24 hours post dose, and the plasma concentrations were determined by a developed LC-MS/MS method.

SD rats = test: Urinary glucose excretion in SD rats; assay type: in vivo; conditions: 1 mg/kg oral
Protocol: Each test compound was dissolved in 30% PEG400 and administered orally to overnight-fasted SD rats by gavage at the dose level of 1 mg/kg. Control rats were given 30% PEG400 only. One hour post dosing, glucose solution (2 g/kg, 10 mL/kg) was administered by oral gavage. Urine was collected within metabolic cages from 0 to 4 hours, and 4 to 24 hours post-dosing for urine volume and glucose measurement. Food was removed 16 hours before dosing and then provided 4 hours after dosing. Water was supplied ad libitum. The concentration of urinary glucose was determined at 4 hours and 24 hours post-dose using a biochemistry analyzer. Results were recorded for the periods 0-4 hours, 4-24 hours and 0-24 hours, and expressed as a percentage of the urinary glucose excretion (UGE) seen with reference compound A, which was run as a positive control in all experiments.

[3] = glucose 2 g/kg 1 h post dose, 0-24 h
[4] = glucose 2 g/kg 1 h post dose, 4-24 h

T2 sequence (P33261 whole entry): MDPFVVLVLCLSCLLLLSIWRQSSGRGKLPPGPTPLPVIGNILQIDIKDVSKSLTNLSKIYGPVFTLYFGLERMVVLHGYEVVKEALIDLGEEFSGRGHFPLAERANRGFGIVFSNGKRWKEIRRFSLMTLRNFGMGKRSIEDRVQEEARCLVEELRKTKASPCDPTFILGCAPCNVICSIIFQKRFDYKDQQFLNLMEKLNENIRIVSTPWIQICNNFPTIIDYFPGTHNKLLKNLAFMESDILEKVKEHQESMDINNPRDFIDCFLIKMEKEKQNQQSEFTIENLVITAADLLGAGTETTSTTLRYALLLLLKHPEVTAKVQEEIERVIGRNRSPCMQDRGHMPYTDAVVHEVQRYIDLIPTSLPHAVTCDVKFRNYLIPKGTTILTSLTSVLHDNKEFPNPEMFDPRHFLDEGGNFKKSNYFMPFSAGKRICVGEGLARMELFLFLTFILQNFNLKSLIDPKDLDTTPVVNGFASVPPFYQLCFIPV
T3 sequence (P08684 whole entry): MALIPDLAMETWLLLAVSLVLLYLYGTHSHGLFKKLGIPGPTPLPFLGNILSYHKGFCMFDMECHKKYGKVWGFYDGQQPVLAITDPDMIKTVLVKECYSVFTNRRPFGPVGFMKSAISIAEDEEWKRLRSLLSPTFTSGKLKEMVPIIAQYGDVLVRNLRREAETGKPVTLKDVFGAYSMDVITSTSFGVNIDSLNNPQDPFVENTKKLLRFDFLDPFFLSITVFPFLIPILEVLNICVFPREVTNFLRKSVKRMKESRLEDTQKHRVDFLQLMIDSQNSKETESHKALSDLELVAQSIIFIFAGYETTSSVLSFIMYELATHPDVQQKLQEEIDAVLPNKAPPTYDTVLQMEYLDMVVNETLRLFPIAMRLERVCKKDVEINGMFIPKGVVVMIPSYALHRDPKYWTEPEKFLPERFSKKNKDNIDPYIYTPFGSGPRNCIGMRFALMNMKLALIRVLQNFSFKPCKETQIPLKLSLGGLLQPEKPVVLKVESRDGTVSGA

SMILES: CCOc1ccc(Cc2cc([C@@H]3O[C@H](CO)[C@@H](O)[C@H](O)[C@H]3O)ccc2Cl)cc1 [Ref A, (2S,3R,4R,5S,6R)-2-(4-chloro-3-(4-ethoxybenzyl)phenyl)-6-(hydroxymethyl)tetrahydro-2H-pyran-3,4,5-triol, reference compound]
IC50 (CYP1A2): 426 µM
IC50 (CYP2C19): 61.1 µM
IC50 (CYP3A4): ~400 µM
Distribution of Metabolites in Urine (% of total), Peak 1 (Parent) [1]: 40%
CL/F [2]: 4.5 mL/min/kg
AUC(0-t) [2]: 11300 ± 2600 ng·h/mL
Cmax (mean ± SD) [2]: 1603 ± 425 ng/mL
t1/2 (mean ± SD) [2]: 4.52 ± 0.98 h
tmax (mean ± SD) [2]: 0.88 ± 0.75 h

SMILES: [2H][C@@]1(c2ccc(Cl)c(Cc3ccc(OCC)cc3)c2)O[C@H](CO)[C@@H](O)[C@H](O)[C@H]1O [compound 5, (2S,3R,4R,5S,6R)-2-(4-chloro-3-(4-ethoxybenzyl)phenyl)-6-(hydroxymethyl)tetrahydro-2H-pyran-2-d-3,4,5-triol]
Urinary Glucose Excretion in Dogs, 0-8 h (mean ± SD) (beagle dogs): 3765 ± 808 mg
Urinary Glucose Excretion in Dogs, 0-24 h (mean ± SD) (beagle dogs): 12676 ± 2150 mg
Urinary Glucose Excretion in Dogs, 8-24 h (mean ± SD) (beagle dogs): 8910 ± 1700 mg
IC50 (CYP1A2): 500 to 1000 µM
IC50 (CYP2C19): 104 µM
IC50 (CYP3A4): 500 to 1000 µM
Urinary Glucose Excretion in Rats, 0-24 h (mean ± SD) (SD rats; [3]): 2650 ± 385 mg
Urinary Glucose Excretion in Rats, 4-24 h (mean ± SD) (SD rats; [4]): 2457 ± 369 mg

SMILES: [2H]C([2H])(c1ccc(OCC)cc1)c1cc([C@@H]2O[C@H](CO)[C@@H](O)[C@H](O)[C@H]2O)ccc1Cl [compound 9, (2S,3R,4R,5S,6R)-2-(4-chloro-3-((4-ethoxyphenyl)methyl-d2)phenyl)-6-(hydroxymethyl)tetrahydro-2H-pyran-3,4,5-triol]
Urinary Glucose Excretion in Dogs, 0-8 h (mean ± SD) (beagle dogs): 3396 ± 442 mg
Urinary Glucose Excretion in Dogs, 0-24 h (mean ± SD) (beagle dogs): 10228 ± 895 mg
Urinary Glucose Excretion in Dogs, 8-24 h (mean ± SD) (beagle dogs): 6832 ± 2555 mg
IC50 (CYP1A2): ~500 µM
IC50 (CYP2C19): 50 to 100 µM
IC50 (CYP3A4): ~1000 µM
Distribution of Metabolites in Urine (% of total), Peak 1 (Parent) [1]: 55%
CL/F [2]: 3.2 mL/min/kg
AUC(0-t) [2]: 15300 ± 2380 ng·h/mL
Cmax (mean ± SD) [2]: 1830 ± 365 ng/mL
t1/2 (mean ± SD) [2]: 5.14 ± 1.28 h
tmax (mean ± SD) [2]: 1.69 ± 0.59 h

Continued, in another order:

IC50 (CYP1A2): 500 to 1000 µM
IC50 (CYP2C19): 168 µM
IC50 (CYP3A4): 500 to 1000 µM
Distribution of Metabolites in Urine (% of total), Peak 1 (Parent) [1]: 45%
CL/F [2]: 2.22 mL/min/kg
AUC(0-t) [2]: 21200 ± 1880 ng·h/mL
Cmax (mean ± SD) [2]: 2285 ± 697 ng/mL
t1/2 (mean ± SD) [2]: 6.05 ± 0.85 h
tmax (mean ± SD) [2]: 1.38 ± 0.75 h
SMILES: [2H]C([2H])([2H])C([2H])([2H])Oc1ccc(Cc2cc([C@@H]3O[C@H](CO)[C@@H](O)[C@H](O)[C@H]3O)ccc2Cl)cc1 [24c, (2S,3R,4R,5S,6R)-2-(4-chloro-3-(4-(ethoxy-d5)benzyl)phenyl)-6-(hydroxymethyl)tetrahydro-2H-pyran-3,4,5-triol]
Urinary Glucose Excretion in Dogs, 0-8 h (mean ± SD) (beagle dogs): 3472 ± 622 mg
Urinary Glucose Excretion in Dogs, 0-24 h (mean ± SD) (beagle dogs): 11964 ± 2190 mg

IC50 (CYP1A2): > 1000 µM
IC50 (CYP2C19): 120 µM
IC50 (CYP3A4): ~1000 µM
CL/F [2]: 7.18 mL/min/kg
AUC(0-t) [2]: 6680 ± 350 ng·h/mL
Cmax (mean ± SD) [2]: 1494 ± 428 ng/mL
t1/2 (mean ± SD) [2]: 6.34 ± 2.79 h
tmax (mean ± SD) [2]: 1.19 ± 0.94 h
SMILES: [2H]C([2H])([2H])Oc1ccc(Cc2cc([C@@H]3O[C@H](CO)[C@@H](O)[C@H](O)[C@H]3O)ccc2Cl)cc1 [24d, (2S,3R,4R,5S,6R)-2-(4-chloro-3-(4-(methoxy-d3)benzyl)phenyl)-6-(hydroxymethyl)tetrahydro-2H-pyran-3,4,5-triol]
Urinary Glucose Excretion in Rats, 0-4 h, % relative to Ref A (SD rats; 0-4 h): 131%
Urinary Glucose Excretion in Rats, 0-24 h, % relative to Ref A (SD rats; 0-24 h): 92%
Urinary Glucose Excretion in Rats, 4-24 h, % relative to Ref A (SD rats; 4-24 h): 89%
Urinary Glucose Excretion in Rats, 0-4 h (mean ± SD) (SD rats; glucose 2 g/kg 1 h post dose, 0-4 h): 251 ± 44 mg
Urinary Glucose Excretion in Rats, 0-24 h (mean ± SD) (SD rats; [3]): 2234 ± 199 mg
Urinary Glucose Excretion in Rats, 4-24 h (mean ± SD) (SD rats; [4]): 1983 ± 167 mg
